# Molecular target: AMPK
# Experiment: AMPK activation, enzyme-linked immunosorbent assay
# Format: biochemical
# Conditions: Table 8, compounds of Table 1
# Procedure, shortened: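 Read-out: ELISA, used to detect compound-driven activation of AMPK.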
row,EC50 [nM],SMILES
1,100 to 500,"O=C(N[C@@H]1CCN(Cc2ccncc2)C1)c1ccc(OC2CCN(c3ccc(C(F)(F)F)cc3)CC2)cn1 [Compound 1-25, (R)-N-(1-(pyridin-4-ylmethyl)pyrrolidin-3-yl)-5-(1-(4-(trifluoromethyl)phenyl)piperidin-4-yloxy)picolinamide]"
2,< 100,"Cc1c(C(=O)NC2CCN(Cc3cccnc3)CC2)oc2cc(OC3CCN(c4ccc(C(F)(F)F)cc4)CC3)ccc12 [Compound 1-69, 3-methyl-N-(1-(pyridin-3-ylmethyl)piperidin-4-yl)-6-(1-(4-(trifluoromethyl)phenyl)piperidin-4-yloxy)benzofuran-2-carboxamide]"
3,100 to 500,"N#Cc1ccc(N2CCC(Oc3ccc(S(=O)(=O)NC4CCN(Cc5ccncc5)CC4)cn3)CC2)cc1 [Compound 1-52, N-(1-(pyridin-4-ylmethyl)piperidin-4-yl)-6-(1-(4-cyanophenyl)piperidin-4-yloxy)pyridine-3-sulfonamide]"
4,100 to 500,"O=C(NC1CCN(Cc2ccccn2)CC1)c1cc2ccc(OC3CCN(c4ccc(C(F)(F)F)cc4)CC3)cc2o1 [Compound 1-93, N-(1-(pyridin-2-ylmethyl)piperidin-4-yl)-6-(1-(4-(trifluoromethyl)phenyl)piperidin-4-yloxy)benzofuran-2-carboxamide]"
5,< 100,"O=C(NC1CCN(Cc2cccnc2)CC1)c1cc2ccc(OC3CCN(c4ccc(C(F)(F)F)cc4)CC3)cc2o1 [Compound 1-96, N-(1-(pyridin-3-ylmethyl)piperidin-4-yl)-6-(1-(4-(trifluoromethyl)phenyl)piperidin-4-yloxy)benzofuran-2-carboxamide]"
6,< 100,"CN(C(=O)c1cc2cc(OC3CCN(c4ccc(C(F)(F)F)cc4)CC3)ccc2o1)C1CCN(Cc2cccc(C#N)c2)CC1 [Compound 1-110, N-(1-(3-cyanobenzyl)piperidin-4-yl)-N-methyl-5-(1-(4-(trifluoromethyl)phenyl)piperidin-4-yloxy)benzofuran-2-carboxamide]"
7,< 100,"O=C(NC1CCN(Cc2ccccc2)CC1)c1cc2cc(OC3CCN(c4ccc(C(F)(F)F)cc4)CC3)ccc2o1 [Compound 1-75, N-(1-benzylpiperidin-4-yl)-5-(1-(4-(trifluoromethyl)phenyl)piperidin-4-yloxy)benzofuran-2-carboxamide]"
8,1000 to 5000,"NC(=O)c1ccc(CN2CCC(Oc3ccc4oc(C(=O)NC5CCN(Cc6ccncc6)CC5)cc4c3)CC2)cc1 [Compound 1-131, 5-(1-(4-carbamoylbenzyl)piperidin-4-yloxy)-N-(1-(pyridin-4-ylmethyl)piperidin-4-yl)benzofuran-2-carboxamide]"
9,> 10000,"O=C(N[C@H]1CCNC1)c1cc2cc(OC3CCN(Cc4ccc(Cl)cc4)CC3)ccc2o1 [Compound 1-128, (S)-5-(1-(4-chlorobenzyl)piperidin-4-yloxy)-N-(pyrrolidin-3-yl)benzofuran-2-carboxamide]"

# Same assay, conditions: Table 9, compounds of Table 2
row,EC50 [nM],SMILES
1,< 500,"N#Cc1ccc(CN2CCC(NC(=O)c3ccc4[nH]c5c(c4c3)CN(Cc3ccc(C(F)(F)F)cc3)CC5)CC2)cc1 [Compound 2-12, N-(1-(4-cyanobenzyl)piperidin-4-yl)-2-(4-(trifluoromethyl)benzyl)-2,3,4,5-tetrahydro-1H-pyrido[4,3-b]indole-8-carboxamide]"
2,1000 to 5000,"O=C(NC1CCN(C(=O)Nc2ccc(C(F)(F)F)cc2)CC1)c1ccc2[nH]c3c(c2c1)CN(Cc1ccc(C(F)(F)F)cc1)CC3 [Compound 2-33, 2-(4-(trifluoromethyl)benzyl)-N-(1-(4-(trifluoromethyl)phenylcarbamoyl)piperidin-4-yl)-2,3,4,5-tetrahydro-1H-pyrido[4,3-b]indole-8-carboxamide]"

# Same assay, conditions: Table 10, compounds of Table 3
row,EC50 [nM],SMILES
1,< 100,"CC(C)(C)OC(=O)N1CCC(NC(=O)c2nc3ccc(OC4CCN(c5ccc(C(F)(F)F)cc5)CC4)cc3o2)CC1 [Compound 3-1, tert-butyl 4-(6-(1-(4-(trifluoromethyl)phenyl)piperidin-4-yloxy)benzo[d]oxazole-2-carboxamido)piperidine-1-carboxylate]"

# Same assay, conditions: Table 12, compounds of Table 5
row,EC50 [nM],SMILES
1,< 1000,"O=C(NC1CCN(Cc2ccccc2)CC1)c1ccc(OC2CCN(Cc3ccc(OC(F)(F)F)cc3)CC2)cc1 [Compound 5-63, N-(1-benzylpiperidin-4-yl)-4-(1-(4-(trifluoromethoxy)benzyl)piperidin-4-yloxy)benzamide]"
2,< 1000,"CC(C)(C)c1ccc(CN2CCC(Oc3ccc(C(=O)NC4CCN(c5ccccc5)CC4)cc3F)CC2)cc1 [Compound 5-36, 4-(1-(4-tert-butylbenzyl)piperidin-4-yloxy)-3-fluoro-N-(1-phenylpiperidin-4-yl)benzamide]"
3,< 1000,"O=C(NC1CCN(Cc2ccccc2)CC1)c1ccc(OC2CCN(Cc3ccc(F)cc3)CC2)c(F)c1 [Compound 5-61, N-(1-benzylpiperidin-4-yl)-3-fluoro-4-(1-(4-fluorobenzyl)piperidin-4-yloxy)benzamide]"
4,< 1000,"COc1cc(C(=O)NCCCNC(=O)OC(C)(C)C)ccc1OC1CCN(Cc2ccc(C(F)(F)F)cc2)CC1 [Compound 5-94, tert-butyl 3-(3-methoxy-4-(1-(4-(trifluoromethyl)benzyl)piperidin-4-yloxy)benzamido) propylcarbamate]"
5,1000 to 10000,"N#Cc1ccc(N2CCC(Oc3cccc(C(=O)NC4CCN(Cc5ccncc5)CC4)c3)CC2)cc1 [Compound 5-88, N-(1-(pyridin-4-ylmethyl)piperidin-4-yl)-3-(1-(4-cyanophenyl)piperidin-4-yloxy)benzamide]"
6,< 1000,"COc1ccc(CN2CCC(NC(=O)c3cccc(OC4CCN(Cc5ccc(N6CCOCC6)cc5)CC4)c3)CC2)cc1 [Compound 5-109, N-(1-(4-methoxybenzyl)piperidin-4-yl)-3-(1-(4-morpholinobenzyl)piperidin-4-yloxy)benzamide]"

# Same assay, conditions: Table 13, compounds of Table 6
row,EC50 [nM],SMILES
1,100 to 1000,"N#Cc1ccc(CN2CCC(NC(=O)c3cc4cc(NC(=O)c5ccc(-n6cccn6)cc5)ccc4o3)CC2)cc1 [Compound 6-65, 5-(4-(1H-pyrazol-1-yl)benzamido)-N-(1-(4-cyanobenzyl)piperidin-4-yl)benzofuran-2-carboxamide]"
2,1000 to 10000,"COc1cccc(CN2CCC(NC(=O)c3cc4cc(C(=O)N5CCN(Cc6ccc(S(C)(=O)=O)cc6)CC5)ccc4o3)CC2)c1 [Compound 6-99, N-(1-(3-methoxybenzyl)piperidin-4-yl)-5-(4-(4-(methylsulfonyl)benzyl)piperazine-1-carbonyl) benzofuran-2-carboxamide]"
3,< 100,"COc1ccc(CN2CCC(NC(=O)c3cc4cc(C(=O)N5CCN(Cc6ccc(-n7cccn7)cc6)CC5)ccc4o3)CC2)cc1 [Compound 6-96, 5-(4-(4-(1H-pyrazol-1-yl)benzyl)piperazine-1-carbonyl)-N-(1-(4-methoxybenzyl)piperidin-4-yl)benzofuran-2-carboxamide]"
4,< 100,"COc1ccc(CN2CCC(NC(=O)c3cc4cc(C(=O)N5CCN(Cc6ccc(S(C)(=O)=O)c(C(F)(F)F)c6)CC5)ccc4o3)CC2)cc1F [Compound 6-132, N-(1-(3-fluoro-4-methoxybenzyl)piperidin-4-yl)-5-(4-(4-(methylsulfonyl)-3-(trifluoromethyl)benzyl)piperazine-1-carbonyl) benzofuran-2-carboxamide]"
5,100 to 1000,"CS(=O)(=O)c1ccc(CN2CCN(C(=O)c3ccc4cc(C(=O)NC5CCN(Cc6ccc(C#N)cc6)CC5)oc4c3)CC2)cc1 [Compound 6-2, N-(1-(4-cyanobenzyl)piperidin-4-yl)-6-(4-(4-(methylsulfonyl)benzyl)piperazine-1-carbonyl) benzofuran-2-carboxamide]"
6,< 100,"COc1ccc(CN2CCC(NC(=O)c3cc4cc(C(=O)N5CCN(Cc6ccc(S(C)(=O)=O)c(C)c6)CC5)ccc4o3)CC2)cc1F [Compound 6-130, N-(1-(3-fluoro-4-methoxybenzyl)piperidin-4-yl)-5-(4-(3-methyl-4-(methylsulfonyl)benzyl)piperazine-1-carbonyl) benzofuran-2-carboxamide]"
7,100 to 1000,"CS(=O)(=O)c1ccc(CN2CCN(C(=O)c3ccc4oc(C(=O)NC5CCN(Cc6ccc(OC(F)(F)F)cc6)CC5)cc4c3)CC2)cc1 [Compound 6-95, 5-(4-(4-(methylsulfonyl)benzyl)piperazine-1-carbonyl)-N-(1-(4-(trifluoromethoxy)benzyl)piperidin-4-yl)benzofuran-2-carboxamide]"

# Same assay, conditions: Table 14, compounds of Table 7
row,EC50 [nM],SMILES
1,1000 to 10000,"COc1ccc(C(=O)C2CCCN(C(=O)c3ccc(C(=O)NC4CCN(Cc5ccc(C#N)cc5)CC4)cn3)C2)cc1 (stereo not drawn) [Compound 7-7, N-(1-(4-cyanobenzyl)piperidin-4-yl)-6-(3-(4-methoxybenzoyl)piperidine-1-carbonyl)nicotinamide]"
2,< 1000,"COc1ccc(CN2CCC(NC(=O)c3ccc(C(=O)N4CCC(Oc5ccc6sc(C)nc6c5)CC4)nc3)CC2)cc1 [Compound 7-24, N-(1-(4-methoxybenzyl)piperidin-4-yl)-6-(4-(2-methylbenzo[d]thiazol-5-yloxy)piperidine-1-carbonyl)nicotinamide]"
3,< 1000,"N#Cc1ccc(CN2CC[C@@H](NC(=O)c3ccc(C(=O)N4CCC(Oc5ccc(S(=O)(=O)C(F)(F)F)cc5)CC4)nc3)[C@H](F)C2)cc1 (relative stereo) [Compound 7-119, N-((trans)-1-(4-cyanobenzyl)-3-fluoropiperidin-4-yl)-6-(4-(4-(trifluoromethylsulfonyl)phenoxy)piperidine-1-carbonyl)nicotinamide]"
4,< 1000,"O=C(NC1CCN(Cc2ccc(OC(F)(F)F)cc2)C[C@H]1F)c1ccc(C(=O)N2CCC(C(=O)c3ccc(N4CCOCC4)cc3)CC2)nc1 (stereo partly drawn) [Compound 7-53, N-((3,4-trans)-3-fluoro-1-(4-(trifluoromethoxy)benzyl)piperidin-4-yl)-6-(4-(4-morpholinobenzoyl)piperidine-1-carbonyl)nicotinamide]"
5,< 1000,"O=C(NC1CCN(Cc2ccc(OC(F)(F)F)cc2)CC1)c1ccc(C(=O)N2CCC(C(=O)c3ccc(N4CCCC4)cc3)CC2)nc1 [Compound 7-110, 6-(4-(4-(pyrrolidin-1-yl)benzoyl)piperidine-1-carbonyl)-N-(1-(4-(trifluoromethoxy)benzyl)piperidin-4-yl)nicotinamide]"
